The IC50 is the concentration at which inhibition is half-maximal. Read a low IC50 as higher potency. What is called inhibition is the relative decrease from the control value, in per cent. As a reminder, the logD is lipophilicity at a set pH, counting ionised and neutral species. The low end stands for a more hydrophilic compound, the high end for a more lipophilic compound.

The results in this text go back to ChEMBL document CHEMBL4400570, “Designing of acyl sulphonamide based quinoxalinones as multifunctional aldose reductase inhibitors” (Bioorg Med Chem, 2019).

The target in series [1] is Aldo-keto reductase family 1 member B1 (Rattus norvegicus, UniProt P07943). Put plainly: Inhibition of Wistar rat lens ALR2 using L-glyceraldehyde as substrate preincubated for 10 mins followed by substrate addition and measured for 4 mins by spectrophotometric method.
Series [2] can be described thus: Antioxidant activity assessed as DPPH radical scavenging activity at 10 uM relative to control. The class given is functional.
For a further series, the species on record is Rattus norvegicus. Put plainly: Selectivity index, ratio of IC50 for Wistar rat kidney ALR1 to IC50 for Wistar rat lens ALR2.
The test system of series [3] is Brain. Kind of series: Antioxidant activity in rat brain homogenate assessed as inhibition of FeCl2/ascorbic acid-induced lipid peroxidation by measuring reduction in TBARS level at 50 uM measured after 30 mins by spectrophotometric method relative to control. The class given is functional, tissue-based.
Series [4] deals with Brain. Kind of series: Antioxidant activity in rat brain homogenate assessed as inhibition of FeCl2/ascorbic acid-induced lipid peroxidation by measuring reduction in TBARS level at 100 uM measured after 30 mins by spectrophotometric method relative to control. The class given is functional, tissue-based.
The nature of series [5]: Antioxidant activity assessed as DPPH radical scavenging activity at 1 uM relative to control. It counts as functional. For orientation: The DPPH test is a chemical assay of radical scavenging.
The nature of series [6]: Octanol-buffer partition coefficient, log D of the compound at pH 7.4 measured after 24 hrs by HPLC based shake flask assay. The class given is physicochemical.
The nature of series [7]: Antioxidant activity assessed as DPPH radical scavenging activity at 5 uM relative to control. It counts as functional.
In series [8] the target is Aldo-keto reductase family 1 member A1 (Rattus norvegicus, UniProt P51635). Put plainly: Inhibition of Wistar rat kidney ALR1 using sodium D-glucuronate as substrate preincubated for 10 mins followed by substrate addition and measured for 4 mins by spectrophotometric method.
Sequence of Aldo-keto reductase family 1 member A1 (P51635 whole entry, looked up): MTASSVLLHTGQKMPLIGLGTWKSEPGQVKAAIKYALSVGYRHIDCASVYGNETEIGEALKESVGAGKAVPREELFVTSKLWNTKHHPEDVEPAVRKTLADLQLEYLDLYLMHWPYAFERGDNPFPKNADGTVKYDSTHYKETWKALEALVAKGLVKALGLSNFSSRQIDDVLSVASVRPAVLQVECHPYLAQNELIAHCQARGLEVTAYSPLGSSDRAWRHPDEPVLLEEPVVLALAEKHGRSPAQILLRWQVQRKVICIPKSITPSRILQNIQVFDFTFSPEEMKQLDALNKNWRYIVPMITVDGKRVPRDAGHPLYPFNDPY
Series [9] in a line: Antioxidant activity assessed as DPPH radical scavenging activity at 50 uM relative to control. It counts as functional.
The nature of series [10]: Antioxidant activity assessed as DPPH radical scavenging activity at 100 uM relative to control. The class given is functional.
The target in series [11] is Aldo-keto reductase family 1 member B1 (Rattus norvegicus) (UniProt P07943). Kind of series: Inhibition of Wistar rat lens ALR2 at 100 uM using L-glyceraldehyde as substrate preincubated for 10 mins followed by substrate addition and measured for 4 mins by spectrophotometric method relative to control.
The target is the same in series [12]. Put plainly: Inhibition of Wistar rat lens ALR2 at 10 uM using L-glyceraldehyde as substrate preincubated for 10 mins followed by substrate addition and measured for 4 mins by spectrophotometric method relative to control.

Consider `O=C(Cn1c(=O)c(-c2ccc(O)cc2)nc2ccccc21)NS(=O)(=O)C(F)(F)F`, for which the IC50 in series [1] was 23.6 µM.
For `O=C(Cn1c(=O)c(/C=C/c2ccc(O)c(O)c2)nc2ccccc21)NS(=O)(=O)C(F)(F)F`, the values for the Activity in [2], in [5] and in [7] were 82.1%, 11% and 51.9%, respectively. Moreover, the Ratio IC50 in the series filed under Rattus norvegicus was 91.6. The inhibition was determined as 39% in the series with Brain [3] and 73.5% in the series with Brain [4]. This molecule displayed a logD at 24 h in series [6] of -1.08. Moreover, the values for the IC50 in series [1] and in series [8] were 0.1 µM and 9.16 µM, respectively.
In the case of `COc1ccc(Oc2nc3ccccc3n(CC(=O)NS(=O)(=O)C(F)(F)F)c2=O)cc1`, in series [1], the IC50 stood at 55.1 µM.
Consider `O=C(Cn1c(=O)c(Oc2ccc(Cl)cc2)nc2ccccc21)NS(=O)(=O)C(F)(F)F`, for which the IC50 in series [1] came out at 40.6 µM. This IC50 and that of the molecule before are within 1.5-fold of each other.
As to `COc1cc(/C=C/c2nc3ccccc3n(CC(=O)NS(=O)(=O)C(F)(F)F)c2=O)ccc1O`, the Activity turned out to be 52.2% in [2], 81.9% in series [9], 89.8% in series [10] and 27.7% in series [7]. In addition, in the series listed under Rattus norvegicus, the Ratio IC50 turned out to be 7.3. Also, the inhibition with Brain [4] was found to be 61.9%. This molecule also returned a logD at 24 h in [6] of 1.05. In addition, the results for the IC50 in series [1] and in series [8] were 3.27 µM and 23.9 µM, respectively.
Take `O=C(O)Cn1c(=O)c(/C=C/c2ccccc2)nc2ccccc21`: the logD at 24 h in series [6] was 0.05.
With `COc1ccc(/C=C/c2nc3ccccc3n(CC(=O)NS(=O)(=O)C(F)(F)F)c2=O)cc1OC`, the Ratio IC50 in the series filed under Rattus norvegicus was 2.67. Moreover, the IC50 is 15.9 µM in series [1] and 42.5 µM in series [8].
For the molecule `O=C(Cn1c(=O)c(-c2ccc(O)c(O)c2)nc2ccccc21)NS(=O)(=O)C(F)(F)F`, the Activity in series [2] came to 81.4%; in series [9], 89.6%; in series [10] it was 92.3%; in [5], 6.8%; in series [7] it was 46%. Besides, the Ratio IC50 in the series filed under Rattus norvegicus was 12.5. For the same molecule, the inhibition in the series on Brain [4] amounted to 58.7%. Besides, the IC50 in series [1] was determined as 4.64 µM; in series [8] it was 57.9 µM.
Turning to `COc1ccc(-c2nc3ccccc3n(CC(=O)NS(=O)(=O)C(F)(F)F)c2=O)cc1OC`, in series [1], the IC50 amounted to 38.7 µM.
On the same count and under the same terms, next, `O=C(Cn1c(=O)c(-c2ccccc2)nc2ccccc21)NS(=O)(=O)C(F)(F)F`: 75.2 µM.
Consider `O=C(Cn1c(=O)c(/C=C/c2ccc(F)cc2)nc2ccccc21)NS(=O)(=O)C(F)(F)F`, for which, in the series filed under Rattus norvegicus, the Ratio IC50 is 2.05. In addition, the IC50 in series [1] is 14.3 µM; in [8] it was 29.2 µM.
On to `O=C(Cn1c(=O)c(/C=C/c2ccc(O)cc2)nc2ccccc21)NS(=O)(=O)C(F)(F)F`, for which the Activity in series [2] is 13.2%; in series [9], 38.9%; in [10], 56.2%. The Ratio IC50 in the series filed under Rattus norvegicus stood at 44.2. Besides, the inhibition in the series with Brain [4] was 38.6%. For the same molecule, in series [6], the logD at 24 h is 1.73. The figures for the IC50 in series [1] and in [8] were 0.627 µM and 27.7 µM, respectively.
In turn, `CS(=O)(=O)NC(=O)Cn1c(=O)c(-c2ccccc2)nc2ccccc21` yielded an inhibition in [11] of 35.9%.
In series [12], `NC(=O)Cn1c(=O)c(/C=C/c2ccccc2)nc2ccccc21` yielded an inhibition of 24.6%.
For the molecule `O=C(Cn1c(=O)c(Oc2ccc(O)cc2)nc2ccccc21)NS(=O)(=O)C(F)(F)F`, the Ratio IC50 in the series filed under Rattus norvegicus is 7.26. The inhibition with Brain [4] came out at 12.3%. The Activity in series [10] worked out at 8.1%. The results for the IC50 in series [1] and in series [8] were 10.1 µM and 73.6 µM, respectively.
As to `O=C(Cn1c(=O)c(/C=C/c2ccccc2)nc2ccccc21)NS(=O)(=O)C(F)(F)F`, the results for the Activity in series [2], in series [9] and in series [10] were 6.4%, 35.1% and 58.5%, respectively. For the same molecule, the Ratio IC50 in the series filed under Rattus norvegicus was 4.68. In addition, the inhibition in the series on Brain [4] worked out at 20.6%. In [6], this molecule gave a logD at 24 h of 2.88. Further, the 50% inhibitory concentration (IC50) is 6.38 µM in series [1] and 29.9 µM in series [8].
Take `Cc1c(C)c2c(c(C)c1O)CCC(C)(C(=O)O)O2` (stereo not given): the Activity in [2] was determined as 77.9%; in series [9] it was 94.7%; in [10], 96.5%; in [5], 8.2%; in series [7] it was 39.3%. The inhibition is 36.6% in the series with Brain [3] and 74.1% with Brain [4].
For the molecule `COc1cc(/C=C/c2nc3ccccc3n(CC(=O)O)c2=O)ccc1O`, the Activity in series [2] turned out to be 44.4%; in series [9], 73.6%; in [10], 94%; in [7], 21.1%. Further, the inhibition with Brain [4] is 56.1%. Moreover, the logD at 24 h in [6] was -2.66.
Consider `NC(=O)Cn1c(=O)c(/C=C/c2ccc(F)cc2)nc2ccccc21`, for which, in [12], the inhibition stood at 26.5%.
`CS(=O)(=O)NC(=O)Cn1c(=O)c(Oc2ccccc2)nc2ccccc21` had an inhibition in series [11] of 41.7%.
As to `O=C(Cn1c(=O)c(-c2ccc(C(F)(F)F)cc2)nc2ccccc21)NS(=O)(=O)C(F)(F)F`, in series [1], inhibition was half-maximal at 34 µM (IC50).
Still for that read-out and setting: next, `O=C(Cn1c(=O)c(Oc2ccccc2)nc2ccccc21)NS(=O)(=O)C(F)(F)F`: 54 µM; `O=C(Cn1c(=O)c(Oc2ccc(Br)cc2)nc2ccccc21)NS(=O)(=O)C(F)(F)F`: 74.7 µM.
For `O=C(O)Cn1c(=O)c(/C=C/c2ccc(O)c(O)c2)nc2ccccc21`, the Activity in series [2] is 46%; in [9] it was 89.2%; in [10] it was 95.4%; in series [7], 21.8%. Besides, in the series on Brain [4], the inhibition turned out to be 59.5%. In [6], this molecule had a logD at 24 h of -2.59.
On to `O=C(Cn1c(=O)c(-c2ccc(F)cc2)nc2ccccc21)NS(=O)(=O)C(F)(F)F`, for which half-maximal inhibition in series [1] (IC50) was put at 71.9 µM.
`CS(=O)(=O)NC(=O)Cn1c(=O)c(/C=C/c2ccccc2)nc2ccccc21` returned an IC50 in [1] of 35.2 µM.
On the same count and under the same terms, then `O=C(Cn1c(=O)c(Oc2ccc(F)cc2)nc2ccccc21)NS(=O)(=O)C(F)(F)F`, with 38.1 µM.
In [6], `O=C(O)Cn1c(=O)c(/C=C/c2ccc(O)cc2)nc2ccccc21` yielded a logD at 24 h of -1.63.
